Data: patent publication US20170275270A1, “BENZYL SUBSTITUTED INDAZOLES” (Bayer Pharma Aktiengesellschaft, priority 2014, published 2017)
pIC50: −log10 of the molar value. Like-named read-outs stand apart in the source and are kept apart here.

What was measured:
[1] = target: T1, catalytic domain of human Bub1 (amino acids 704-1085) (Homo sapiens, UniProt O43683); experiment: Bub1 kinase assay (TR-FRET); assay type: biochemical
T1 construct: catalytic domain of human Bub1 (amino acids 704-1085); His6 (N); made in house; host or cells: Hi5 insect cells
T1 sequence (O43683 704-1085): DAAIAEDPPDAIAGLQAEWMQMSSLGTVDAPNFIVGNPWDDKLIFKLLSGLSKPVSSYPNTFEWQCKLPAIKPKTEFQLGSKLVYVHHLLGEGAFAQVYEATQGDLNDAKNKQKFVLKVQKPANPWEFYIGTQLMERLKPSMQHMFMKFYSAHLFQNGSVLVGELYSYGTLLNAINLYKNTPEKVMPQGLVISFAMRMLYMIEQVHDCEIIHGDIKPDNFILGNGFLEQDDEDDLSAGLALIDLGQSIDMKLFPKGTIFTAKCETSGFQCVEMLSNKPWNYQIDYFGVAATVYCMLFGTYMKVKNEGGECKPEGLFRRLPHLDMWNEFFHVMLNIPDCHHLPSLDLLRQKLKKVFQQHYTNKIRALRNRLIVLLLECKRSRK
Outline: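 TR-FRET read-out (Eu-anti-mouse IgG/anti-phosphoserine antibody to streptavidin-XL665 on biotinylated peptide) after EDTA stop and 1 h complex formation at 22° C. Kinase reaction ran 60 min at 22° C with 1:3.4 serial dilutions from 2 mM DMSO stocks. IC50 from 4-parameter logistic fit of normalized inhibition.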

Bub1 = Bub1 (Homo sapiens, UniProt O43683); experiment: Formation-Assay: phosphorylation status of histone 2A by inhibition of kinase activity of Bub1; assay type: cell-based; settings: Biological Assay 4.1: H2A Formation IC50, co-treatment with Nocodazole 1 μg/ml, 16 h
Sequence of Bub1 (O43683 whole entry): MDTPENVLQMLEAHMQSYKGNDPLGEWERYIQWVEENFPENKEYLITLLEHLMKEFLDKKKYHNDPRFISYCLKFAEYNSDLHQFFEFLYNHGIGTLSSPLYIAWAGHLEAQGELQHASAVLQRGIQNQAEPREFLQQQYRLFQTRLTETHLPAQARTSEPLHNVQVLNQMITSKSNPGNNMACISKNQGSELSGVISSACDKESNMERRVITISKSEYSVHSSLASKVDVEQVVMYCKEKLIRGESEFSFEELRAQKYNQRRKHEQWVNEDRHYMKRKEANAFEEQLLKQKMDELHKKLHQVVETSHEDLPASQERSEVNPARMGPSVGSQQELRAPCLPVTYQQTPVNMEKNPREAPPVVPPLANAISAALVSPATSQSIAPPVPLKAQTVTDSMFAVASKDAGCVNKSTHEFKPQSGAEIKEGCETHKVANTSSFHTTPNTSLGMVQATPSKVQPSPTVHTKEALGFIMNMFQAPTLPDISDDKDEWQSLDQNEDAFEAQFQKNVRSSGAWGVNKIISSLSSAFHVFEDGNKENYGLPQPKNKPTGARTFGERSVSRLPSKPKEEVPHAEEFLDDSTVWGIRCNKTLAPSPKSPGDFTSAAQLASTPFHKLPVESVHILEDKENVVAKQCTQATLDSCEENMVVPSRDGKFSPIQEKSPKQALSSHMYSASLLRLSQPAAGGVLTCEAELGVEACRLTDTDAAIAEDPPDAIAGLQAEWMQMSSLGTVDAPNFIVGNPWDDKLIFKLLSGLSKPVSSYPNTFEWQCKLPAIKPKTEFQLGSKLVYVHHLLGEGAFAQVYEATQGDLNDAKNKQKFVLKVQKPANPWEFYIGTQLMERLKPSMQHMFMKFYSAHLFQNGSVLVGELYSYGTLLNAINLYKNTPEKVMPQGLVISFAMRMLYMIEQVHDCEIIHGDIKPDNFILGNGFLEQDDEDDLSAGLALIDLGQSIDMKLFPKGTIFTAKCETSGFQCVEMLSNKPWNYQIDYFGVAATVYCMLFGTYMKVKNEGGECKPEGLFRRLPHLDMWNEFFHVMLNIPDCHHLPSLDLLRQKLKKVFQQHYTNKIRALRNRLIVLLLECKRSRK
Method: Biological Assay 4.1: Formation-Assay
Cell-Based Mechanistic Assay: Changes of Phosphorylation Status of Histone 2A by Inhibition of Kinase Activity of Bub1
This assay determines the suppression of histone 2A phosphorylation by a Bub1 kinase inhibitor during co-treatment with Nocodazole. 25000 cells (cells were ordered from ATCC) were seeded in 96 well plate for 5 h at 37° C. Cells were treated with Nocodazole (1 μg/ml) and varying concentrations (between 3 nM and 10 μM) of test compounds for 16 h. Cells were fixed (20 min, Fixing solution R&D), washed three times with PBS and blocked with Odyssey blocking buffer before incubating with the primary antibody against phosphorylated H2A (5 μg/ml ABIN482721) overnight at 2-8° C. After washing, secondary IRDye-labeled antibody mix with cell stains was added for 1 h and washed again with PBS. Plates were scanned with LiCor Odyssey Infrared Imager CLx at 800 nm for P-H2A and at 700 nm for cell stains Draq5/Sapphire. The quotient of 800 nm and 700 nm for Nocodazole only treated cells was set as 100% and the quotient of 800 nm and 700 nm of untreated cells was set as 0%.
Histone H2A is an immediate intracellular substrate of Bub1 kinase. Determination of the phosphorylation status of Histone H2A provides a direct measure of the intracellular activity of Bub1 kinase.

HeLa = experiment: Proliferation assay (HeLa cell line); settings: Homo sapiens, 96 h, read-out: Biological Assay 2: Proliferation assay (HeLa cell line) median IC50;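 also: crystal violet staining of cell number, scaled between a plate stained before dosing (0%) and cells left untreated (100%), compounds tested at 0.001-10 µM, IC50 via 4-parameter fit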
[2] = tested on: HeLa human cervical tumor cells; experiment: Proliferation assay (HeLa+Paclitaxel); settings: read-out: Biological Assay 3: HeLa + Paclitaxel IC50, 3 nM paclitaxel, crystal violet;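 also: compounds at 0.001-10 µM added 4 h after paclitaxel, 92 h exposure, absorbance normalized to zero-point plate (0%) and untreated cells (100%), IC50 from 4-parameter fit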
Method: Proliferation Assay (HeLa+Paclitaxel):
Cultivated HeLa human cervical tumor cells (DSMZ ACC-57) were plated at a density of 3000 cells/well in a 96-well multititer plate in 200 μL of growth medium supplemented 10% fetal calf serum. After 24 hours, the cells of one plate (zero-point plate) were stained with crystal violet (see below). The medium of the other plates was supplemented with 3 nM of paclitaxel (Sigma-Aldrich) and the cells were incubated at 37° C. After 4 hours the test substances were added in various concentrations (0 μM, as well as in the range of 0.001-10 μM; the final concentration of the solvent dimethyl sulfoxide was adjusted to 0.1%) using a Hewlett-Packard HP D300 Digital Dispenser. The cells were incubated for another 92 hours at 37° C. in the presence of test substances. Cell proliferation was determined by staining the cells with crystal violet: the cells were fixed by adding 20 μL/measuring point of an 11% glutaric aldehyde solution for 15 minutes at room temperature. After three washing cycles of the fixed cells with water, the plates were dried at room temperature. The cells were stained by adding 100 μL/measuring point of a 0.1% crystal violet solution (pH 3.0). After three washing cycles of the stained cells with water, the plates were dried at room temperature. The dye was dissolved by adding 100 μL/measuring point of a 10% acetic acid solution. […] The change of cell number, in percent, was calculated by normalization of the measured values to the absorbtion values of the zero-point plate (=0%) and the absorbtion of the untreated (0 μm) cells (=100%). The IC50 values were determined by means of a 4 parameter fit.

[3] = Biological Assay 1: Bub1 kinase assay median IC50, 10 μM ATP
[4] = 10 μM ATP, read-out: Biological Assay 1: Bub1 kinase assay median IC50

Row | pIC50 [1, 3] | pIC50 (Bub1) | pIC50 (HeLa) | pIC50 [1, 4] | pIC50 [2] | SMILES
1 | 8.21 | 5.64 | 5.46 | – | – | CCOc1cc(F)c(Cn2nc(-c3ncc(CCS(C)(=O)=O)c(Nc4ccncc4)n3)c3ccccc32)c(F)c1 [Example 2-3-1, 2-[1-(4-ethoxy-2,6-difluorobenzyl)-1H-indazol-3-yl]-5-[2-(methylsulfonyl)ethyl]-N-(eparate-4-yl)pyrimidin-4-amine]
2 | – | 6.85 | – | 8.26 | – | CCOc1cc(F)c(Cn2nc(-c3nc(C)cc(Nc4ccncc4C(N)=O)n3)c3ccccc32)c(F)c1 [Example 2-10-2, 4-({2-[1-(4-ethoxy-2,6-difluorobenzyl)-1H-indazol-3-yl]-6-methylpyrimidin-4-yl}amino)pyridine-3-carboxamide]
3 | 5.52 | – | 5.06 | – | 6.96 | CCOc1cc(F)c(Cn2nc(-c3nc(CN4CCOCC4)cc(Nc4ncncc4C)n3)c3ccccc32)c(F)c1 [Example 2-12-38, 2-[1-(4-ethoxy-2,6-difluorobenzyl)-1H-indazol-3-yl]-N-(5-methylpyrimidin-4-yl)-6-(morpholin-4-ylmethyl)pyrimidin-4-amine]
4 | 7.59 | – | < 5.00 | – | 6.11 | COCCOc1cc(F)c(Cn2nc(-c3nc(CN4CCOCC4)cc(Nc4ccnnc4)n3)c3ccccc32)c(F)c1 [Example 2-12-39, N-[2-{1-[2,6-difluoro-4-(2-methoxyethoxy)benzyl]-1H-indazol-3-yl}-6-(morpholin-4-ylmethyl)pyrimidin-4-yl]pyridazin-4-amine]
5 | 8.06 | – | 5.46 | – | 6.92 | COCCOc1cc(F)c(Cn2nc(-c3nc(CN4CCOCC4)cc(Nc4ccncc4C)n3)c3ccccc32)c(F)c1 [Example 2-12-41, 2-{1-[2,6-difluoro-4-(2-methoxyethoxy)benzyl]-1H-indazol-3-yl}-N-(3-methylpyridin-4-yl)-6-(morpholin-4-ylmethyl)pyrimidin-4-amine]
6 | 7.80 | – | 5.47 | – | 6.62 | COCCOc1cc(F)c(Cn2nc(-c3nc(CN4CCOCC4)cc(Nc4ccncc4OC)n3)c3ccccc32)c(F)c1 [Example 2-12-42, 2-{1-[2,6-difluoro-4-(2-methoxyethoxy)benzyl]-1H-indazol-3-yl}-N-(3-methoxypyridin-4-yl)-6-(morpholin-4-ylmethyl)pyrimidin-4-amine]
7 | 8.02 | – | 5.44 | – | 6.60 | COCCOc1cc(F)c(Cn2nc(-c3nc(CN4CCOCC4)cc(Nc4ccncc4)n3)c3ccccc32)c(F)c1 [Example 2-12-43, 2-{1-[2,6-difluoro-4-(2-methoxyethoxy)benzyl]-1H-indazol-3-yl}-6-(morpholin-4-ylmethyl)-N-(pyridin-4-yl)pyrimidin-4-amine]
8 | 6.49 | – | 5.02 | – | 7.05 | CCOc1cc(F)c(Cn2nc(-c3nc(CN4CCOCC4)cc(Nc4cc(C)nc(C)n4)n3)c3ccccc32)c(F)c1 [Example 2-12-44, N-(2,6-dimethylpyrimidin-4-yl)-2-[1-(4-ethoxy-2,6-difluorobenzyl)-1H-indazol-3-yl]-6-(morpholin-4-ylmethyl)pyrimidin-4-amine]
9 | 6.12 | – | < 5.00 | – | 6.42 | CCOc1cc(F)c(Cn2nc(-c3nc(CN4CCOCC4)cc(Nc4cc(O)ncn4)n3)c3ccccc32)c(F)c1 [Example 2-12-45, 6-({2-[1-(4-ethoxy-2,6-difluorobenzyl)-1H-indazol-3-yl]-6-(morpholin-4-ylmethyl)pyrimidin-4-yl}amino)pyrimidin-4-ol]
10 | 8.06 | – | 5.07 | – | 6.77 | CCOc1cc(F)c(Cn2nc(-c3nc4c(c(Nc5ccnc(NC(C)=O)c5)n3)CC(C)(C)CC4)c3ccccc32)c(F)c1 [Example 2-12-69, N-[4-({2-[1-(4-ethoxy-2,6-difluorobenzyl)-1H-indazol-3-yl]-6,6-dimethyl-5,6,7,8-tetrahydroquinazolin-4-yl}amino)pyridin-2-yl]acetamide]
11 | – | – | < 5.00 | 8.25 | 5.72 | CCOc1cc(F)c(Cn2nc(-c3nc(C)cc(Nc4ccncc4OC(F)(F)F)n3)c3ccccc32)c(F)c1 [Example 2-12-79, 2-[1-(4-ethoxy-2,6-difluorobenzyl)-1H-indazol-3-yl]-6-methyl-N-[3-(trifluoromethoxy)pyr-idin-4-yl]pyrimidin-4-amine]
12 | – | 7.52 | – | < 4.70 | – | CCOc1cc(F)c(Cn2nc(-c3nc(Nc4cc(C)ncc4C)cc(C(F)(F)F)n3)c3ccccc32)c(F)c1 [Example 2-12-82, N-(2,5-dimethylpyridin-4-yl)-2-[1-(4-ethoxy-2,6-difluorobenzyl)-1H-indazol-3-yl]-6-(trifluoromethyl)pyr-imidin-4-amine]
13 | 7.70 | – | 5.57 | – | 6.55 | CCOc1cc(F)c(Cn2nc(-c3nc(Nc4ccncn4)cc(C4CCOCC4)n3)c3ccccc32)c(F)c1 [Example 2-12-92, 2-[1-(4-ethoxy-2,6-difluorobenzyl)-1H-indazol-3-yl]-N-(pyrimidin-4-yl)-6-(tetrahydro-2H-pyran-4-yl)pyrimidin-4-amine]
14 | 7.52 | – | < 5.00 | – | < 5.00 | CCOc1cc(F)c(Cn2nc(-c3nc(Nc4ccnc(C)n4)cc(-c4ccn(C)n4)n3)c3ccccc32)c(F)c1 [Example 2-12-93, 2-[1-(4-ethoxy-2,6-difluorobenzyl)-1H-indazol-3-yl]-6-(1-methyl-1H-pyrazol-3-yl)-N-(2-methylpyrimidin-4-yl)pyrimidin-4-amine]
15 | 8.01 | – | 5.41 | – | 5.64 | CCOc1cc(F)c(Cn2nc(-c3nc(Nc4ccncc4OC)cc(-c4ccn(C)n4)n3)c3ccccc32)c(F)c1 [Example 2-12-94, 2-[1-(4-ethoxy-2,6-difluorobenzyl)-1H-indazol-3-yl]-N-(3-methoxypyridin-4-yl)-6-(1-methyl-1H-pyrazol-3-yl)pyrimidin-4-amine]
16 | 7.59 | – | < 5.00 | – | 5.01 | CCOc1cc(F)c(Cn2nc(-c3nc(Nc4ccncn4)cc(-c4nccs4)n3)c3ccccc32)c(F)c1 [Example 2-12-95, 2-[1-(4-ethoxy-2,6-difluorobenzyl)-1H-indazol-3-yl]-N-(pyrimidin-4-yl)-6-(1,3-thiazol-2-yl)pyrimidin-4-amine]
17 | – | – | 5.52 | 8.28 | 6.60 | CCOc1cc(F)c(Cn2nc(-c3nc4c(c(Nc5ccncc5C(F)(F)F)n3)CCC4)c3ccccc32)c(F)c1 [Example 2-14-3, 2-[1-(4-ethoxy-2,6-difluorobenzyl)-1H-indazol-3-yl]-N-[3-(trifluoromethyl)pyridin-4-yl]-6,7-dihydro-5H-cyclopenta[d]pyrimidin-4-amine]
18 | 7.18 | – | < 5.00 | – | < 5.00 | CCOc1cc(F)c(Cn2nc(-c3nc4c(c(Nc5ccncc5C(=O)O)n3)CCC4)c3ccccc32)c(F)c1 [Example 2-14-9, 4-({2-[1-(4-ethoxy-2,6-difluorobenzyl)-1H-indazol-3-yl]-6,7-dihydro-5H-cyclopenta[d]pyrimidin-4-yl}amino)pyridine-3-carboxylic acid]
19 | 8.07 | – | < 5.00 | – | 7.16 | CCOc1cc(F)c(Cn2nc(-c3nc4c(c(Nc5ccncc5)n3)CN(CC)CC4)c3ccccc32)c(F)c1 [Example 2-15-1, 2-[1-(4-ethoxy-2,6-difluorobenzyl)-1H-indazol-3-yl]-6-ethyl-N-(pyridin-4-yl)-5,6,7,8-tetrahydropyrido[4,3-d]pyrimidin-4-amine]
20 | – | – | 5.46 | 8.11 | 6.82 | CCOc1cc(F)c(Cn2nc(-c3nc(CN4CCCCC4)cc(Nc4ccncc4)n3)c3ccccc32)c(F)c1 [Example 2-15-7, 2-[1-(4-ethoxy-2,6-difluorobenzyl)-1H-indazol-3-yl]-6-(piperidin-1-ylmethyl)-N-(pyridin-4-yl)pyrimidin-4-amine]
21 | 7.51 | – | 5.92 | – | 7.17 | COCCOc1cc(F)c(Cn2nc(-c3ncc(C4CCN(CC5CC5)CC4)c(Nc4ccnc(C)n4)n3)c3ccccc32)c(F)c1 [Example 2-20-12, 5-[1-(cyclopropylmethyl)piperidin-4-yl]-2-{1-[2,6-difluoro-4-(2-methoxyethoxy)benzyl]-1H-indazol-3-yl}-N-(2-methylpyrimidin-4-yl)pyrimidin-4-amine]
